The values below come from patent US5420158A, “Naphthylalkylamines” (Adir et Compagnie, priority 1992, dated 1995).

Each structure is given as a SMILES string.

The subject of this assay is Xenopus melanophores. Put plainly: Melatonin-antagonist activity with respect to pigment aggregation. The class given is cell-based, Xenopus laevis. Conditions: compound at 10^-7 M, melatonin 10^-8 M. As for the experimental part:
Melatonin is known to participate in regulation of the skin color of amphibians such as Xenopus (Xenopus laevis). It causes condensation of the […] granules in the melanophores of the dermis (Sugden D. European Journal of Pharmacology, vol. 213, pp: 405-408 (1992)).
The compounds of the invention were tested for their capacity to inhibit the effect of melatonin on Xenopus melanophores.
(According to the method described in Sugden D. Br. J. Pharmacol. vol. 104, pp 922-927, (1991)).
The neural crest of Xenopus embryos is dissected and the cells are isolated. The melanophores which appear after 2-3 days of culture are rapidly visible among the other cells emanating from the neural crest. The melanophores are cultured in Leibovitz L-15 medium (Gibco) and diluted (1/1) with deionized water containing 10% of fetal calf serum, 200 IU/cm^3 of penicillin, 200 μg/cm^3 of streptomycin and 2.5 μg/cm^3 of amphotericin B.
The experiments on the melanophores are carried out between days 7 and 12 of the culture.
The response of the isolated melanophores to melatonin is quantified by measuring the pigmented area using a computer-assisted image analyzer. The test compounds are added to the culture medium 10 to 15 min before the measurement.

Take `O=C(NCCc1cccc2ccccc12)C1CCC1` [Example 1, N-[2-(1-naphthyl)ethyl]cyclobutanecarboxamide]: the “antagonism of the action of melatonin on pigment aggregation” value is recorded as “significantly antagonizes the action of melatonin”.
